Results: patent publication US8598344B2, “CDKI pathway inhibitors and uses thereof” (Senex Biotechnology, priority 2009, dated 2013)

Assays:
Assay in all cases: KinomeScan competition binding assay
[1] = target: T1, BTK (Homo sapiens, UniProt Q06187); conditions: 10 μM compound
T1 construct: purchased KinomeScan, a division of Ambit Biosciences
Description: (§1) This similarity led us to test SNX14 for the ability to inhibit 285 kinases, using the services of KinaseProfiler of Millipore Corporation (285 kinases). […] The KINOMEscan assay has been described in detail in Fabian et al., Nat. Biotechnol. 23: 329 (2005) and Karaman et al., Nat. Biotechnol. 26: 127 (2008).
(§2) The KinomeScan assay is based on a competition binding assay that quantitatively measures the ability of a compound to compete with an immobilized, ATP site directed ligand. The assay is performed by combining three components: DNA-tagged kinase; immobilized ligand; and a test compound. The ability of the test compound to compete with the immobilized ligand is measured via quantitative PCR of the DNA tag. […] The CDKs tested by Millipore for inhibition with SNX14 included CDK1, CDK2, CDK3, CDK5, CDK7 and CDK9; none of these were inhibited to less than 49 percent of control (POC) activity. The CDKs tested by KinomeScan for the effect of Compound 1 included CDK2, CDK3, CDK4, CDK5, CDK7, CDK8, CDK9 and CDK19; aside from CDK8 and CDK19, the strongest inhibited CDK was CDK7 (33% POC binding). To determine the inhibition of which kinases correlates with the biological activity of SNX2-class compounds, we tested eight additional compounds of the SNX2 family, which gave different IC50 values in the cellular assays, for the ability to affect 24 kinases that were most susceptible to compound 1, through the services of KinomeScan. […] We have also determined the binding constant (Kd) for SNX14, compound 1, compound 20, compound 26, compound 43 and compound 14 in kinase assays for CDK8 and CDK19 (Table 1).

[2] = target: T2, FLT3 (D835Y) (Homo sapiens, UniProt P36888, D835Y); conditions: 10 μM compound
T2 construct: purchased KinomeScan, a division of Ambit Biosciences
T2 sequence (P36888 27-993 D835Y): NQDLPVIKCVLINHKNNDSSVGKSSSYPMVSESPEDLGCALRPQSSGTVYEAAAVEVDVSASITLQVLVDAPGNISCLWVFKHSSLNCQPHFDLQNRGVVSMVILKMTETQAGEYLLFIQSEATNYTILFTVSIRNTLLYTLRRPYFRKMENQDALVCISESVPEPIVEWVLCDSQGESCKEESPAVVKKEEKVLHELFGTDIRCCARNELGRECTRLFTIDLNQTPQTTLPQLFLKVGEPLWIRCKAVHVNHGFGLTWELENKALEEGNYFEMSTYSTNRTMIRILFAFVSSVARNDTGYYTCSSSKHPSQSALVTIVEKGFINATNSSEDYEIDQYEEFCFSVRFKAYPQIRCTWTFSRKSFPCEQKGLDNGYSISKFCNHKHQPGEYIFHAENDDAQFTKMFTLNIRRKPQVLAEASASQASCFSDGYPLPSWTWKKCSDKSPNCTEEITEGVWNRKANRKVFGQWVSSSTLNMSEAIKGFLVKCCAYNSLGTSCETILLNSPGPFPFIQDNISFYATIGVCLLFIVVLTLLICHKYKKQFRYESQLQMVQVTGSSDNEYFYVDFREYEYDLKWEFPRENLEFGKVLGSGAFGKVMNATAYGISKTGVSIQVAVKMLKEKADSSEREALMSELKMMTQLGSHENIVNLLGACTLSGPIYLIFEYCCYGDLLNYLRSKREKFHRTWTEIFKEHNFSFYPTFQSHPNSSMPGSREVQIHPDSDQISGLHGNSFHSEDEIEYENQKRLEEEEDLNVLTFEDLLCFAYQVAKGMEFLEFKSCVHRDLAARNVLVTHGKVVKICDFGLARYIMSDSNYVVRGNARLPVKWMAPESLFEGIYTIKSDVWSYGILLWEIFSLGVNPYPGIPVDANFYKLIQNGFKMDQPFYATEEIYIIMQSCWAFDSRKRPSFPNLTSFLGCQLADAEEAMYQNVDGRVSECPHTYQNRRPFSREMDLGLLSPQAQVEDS
Description: as §1, §2

[3] = target: T3, STK16 (Homo sapiens, UniProt O75716); conditions: 10 μM compound
T3 construct: purchased KinomeScan, a division of Ambit Biosciences
Description: as §1, §2

[4] = target: T4, HIPK2 (Homo sapiens, UniProt Q9H2X6); conditions: 10 μM compound
T4 construct: purchased KinomeScan, a division of Ambit Biosciences
Description: as §1, §2

[5] = target: T5, CDK8 (Homo sapiens, UniProt P49336); conditions: for inhibition of CDK8: 10 μM; for Kd: read-out: CDK8 inhibition (Kd); for POC ligand binding, CDK8: 10 μM compound
T5 construct: purchased KinomeScan, a division of Ambit Biosciences
Description: as §1, §2

[6] = target: T6, MAP4K2 (Homo sapiens, UniProt Q12851); conditions: 10 μM compound
T6 construct: purchased KinomeScan, a division of Ambit Biosciences
T6 sequence (Q12851 1-820): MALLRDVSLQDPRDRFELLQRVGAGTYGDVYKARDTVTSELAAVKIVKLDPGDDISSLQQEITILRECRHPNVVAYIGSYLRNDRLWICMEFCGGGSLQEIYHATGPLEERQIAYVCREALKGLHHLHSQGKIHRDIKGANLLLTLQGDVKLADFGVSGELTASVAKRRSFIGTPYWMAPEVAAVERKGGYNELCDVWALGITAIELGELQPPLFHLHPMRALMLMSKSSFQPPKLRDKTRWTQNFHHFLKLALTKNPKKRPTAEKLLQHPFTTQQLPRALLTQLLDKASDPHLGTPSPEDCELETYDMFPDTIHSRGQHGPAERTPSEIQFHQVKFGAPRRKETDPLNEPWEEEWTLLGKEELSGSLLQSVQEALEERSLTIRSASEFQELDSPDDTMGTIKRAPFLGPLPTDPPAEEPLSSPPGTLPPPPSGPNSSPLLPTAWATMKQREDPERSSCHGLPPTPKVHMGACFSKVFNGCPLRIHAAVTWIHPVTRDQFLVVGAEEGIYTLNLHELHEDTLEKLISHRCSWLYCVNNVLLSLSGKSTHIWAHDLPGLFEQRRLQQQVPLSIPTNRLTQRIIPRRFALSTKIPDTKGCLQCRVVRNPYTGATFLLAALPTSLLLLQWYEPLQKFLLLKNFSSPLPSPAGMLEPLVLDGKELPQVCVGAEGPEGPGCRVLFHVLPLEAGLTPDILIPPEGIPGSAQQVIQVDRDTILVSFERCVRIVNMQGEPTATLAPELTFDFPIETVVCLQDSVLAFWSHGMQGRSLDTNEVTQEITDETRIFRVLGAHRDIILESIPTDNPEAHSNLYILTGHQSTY
Description: as §1, §2

[7] = target: T7, SLK (Homo sapiens, UniProt Q9H2G2); conditions: 10 μM compound
T7 construct: purchased KinomeScan, a division of Ambit Biosciences
Description: as §1, §2

T7 sequence (Q9H2G2 whole entry): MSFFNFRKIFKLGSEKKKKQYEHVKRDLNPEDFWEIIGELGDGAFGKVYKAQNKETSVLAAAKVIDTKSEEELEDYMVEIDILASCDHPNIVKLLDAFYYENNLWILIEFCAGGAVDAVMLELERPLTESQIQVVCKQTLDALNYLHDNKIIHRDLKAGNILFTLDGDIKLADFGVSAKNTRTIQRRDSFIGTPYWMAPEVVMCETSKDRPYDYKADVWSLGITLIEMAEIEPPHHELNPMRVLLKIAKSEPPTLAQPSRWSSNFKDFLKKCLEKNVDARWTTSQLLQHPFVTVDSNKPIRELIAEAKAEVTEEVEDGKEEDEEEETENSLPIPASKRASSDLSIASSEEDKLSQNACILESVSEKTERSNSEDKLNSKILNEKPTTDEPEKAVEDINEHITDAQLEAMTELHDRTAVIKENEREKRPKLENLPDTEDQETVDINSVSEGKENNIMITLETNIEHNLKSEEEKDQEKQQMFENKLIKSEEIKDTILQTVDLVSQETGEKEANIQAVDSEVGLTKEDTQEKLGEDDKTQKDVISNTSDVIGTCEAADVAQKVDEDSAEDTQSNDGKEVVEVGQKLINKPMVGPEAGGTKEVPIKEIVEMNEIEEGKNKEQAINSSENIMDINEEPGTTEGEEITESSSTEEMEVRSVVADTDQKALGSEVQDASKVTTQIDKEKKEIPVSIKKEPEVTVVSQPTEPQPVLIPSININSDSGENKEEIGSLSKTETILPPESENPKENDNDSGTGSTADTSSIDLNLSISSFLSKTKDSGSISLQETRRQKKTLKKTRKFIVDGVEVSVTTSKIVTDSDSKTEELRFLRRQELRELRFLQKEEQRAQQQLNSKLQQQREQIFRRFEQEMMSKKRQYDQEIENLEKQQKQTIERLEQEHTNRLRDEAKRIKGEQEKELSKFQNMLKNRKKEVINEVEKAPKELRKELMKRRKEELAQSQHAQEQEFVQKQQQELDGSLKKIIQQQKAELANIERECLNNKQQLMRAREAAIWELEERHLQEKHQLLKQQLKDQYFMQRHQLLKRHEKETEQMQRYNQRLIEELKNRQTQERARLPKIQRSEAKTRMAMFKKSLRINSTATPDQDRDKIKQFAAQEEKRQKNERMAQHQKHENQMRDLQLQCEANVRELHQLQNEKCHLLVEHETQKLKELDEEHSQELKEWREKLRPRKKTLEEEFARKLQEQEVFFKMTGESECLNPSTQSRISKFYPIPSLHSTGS
T4 sequence (Q9H2X6 whole entry): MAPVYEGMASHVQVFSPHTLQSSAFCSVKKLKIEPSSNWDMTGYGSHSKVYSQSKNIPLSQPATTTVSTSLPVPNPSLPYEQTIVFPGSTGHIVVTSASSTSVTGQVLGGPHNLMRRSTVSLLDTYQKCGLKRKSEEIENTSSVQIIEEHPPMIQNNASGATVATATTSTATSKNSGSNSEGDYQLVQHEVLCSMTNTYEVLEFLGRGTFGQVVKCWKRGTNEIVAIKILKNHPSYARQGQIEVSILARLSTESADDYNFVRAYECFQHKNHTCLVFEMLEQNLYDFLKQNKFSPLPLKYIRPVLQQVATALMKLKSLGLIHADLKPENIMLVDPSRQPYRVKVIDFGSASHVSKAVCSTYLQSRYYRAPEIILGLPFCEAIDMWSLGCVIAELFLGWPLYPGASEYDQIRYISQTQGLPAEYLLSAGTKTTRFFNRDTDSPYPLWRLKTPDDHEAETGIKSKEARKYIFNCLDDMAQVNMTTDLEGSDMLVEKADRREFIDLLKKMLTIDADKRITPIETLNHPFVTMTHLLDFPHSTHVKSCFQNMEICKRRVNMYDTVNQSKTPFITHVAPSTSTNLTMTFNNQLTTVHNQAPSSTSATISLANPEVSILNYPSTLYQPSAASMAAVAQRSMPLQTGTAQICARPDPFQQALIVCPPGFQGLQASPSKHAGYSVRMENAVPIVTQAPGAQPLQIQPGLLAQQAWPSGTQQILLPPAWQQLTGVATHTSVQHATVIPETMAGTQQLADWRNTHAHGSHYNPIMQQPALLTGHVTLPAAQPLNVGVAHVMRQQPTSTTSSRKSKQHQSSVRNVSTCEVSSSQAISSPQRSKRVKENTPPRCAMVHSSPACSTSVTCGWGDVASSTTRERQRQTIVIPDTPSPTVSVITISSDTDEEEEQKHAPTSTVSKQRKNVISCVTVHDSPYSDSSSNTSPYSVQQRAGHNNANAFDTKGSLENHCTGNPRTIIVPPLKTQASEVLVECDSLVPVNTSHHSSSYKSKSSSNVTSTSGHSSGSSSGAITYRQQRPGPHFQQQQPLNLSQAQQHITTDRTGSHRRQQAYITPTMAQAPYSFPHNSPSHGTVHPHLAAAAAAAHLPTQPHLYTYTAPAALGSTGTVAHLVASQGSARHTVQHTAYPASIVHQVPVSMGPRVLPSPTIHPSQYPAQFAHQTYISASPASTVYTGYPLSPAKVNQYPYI
T5 sequence (P49336 whole entry): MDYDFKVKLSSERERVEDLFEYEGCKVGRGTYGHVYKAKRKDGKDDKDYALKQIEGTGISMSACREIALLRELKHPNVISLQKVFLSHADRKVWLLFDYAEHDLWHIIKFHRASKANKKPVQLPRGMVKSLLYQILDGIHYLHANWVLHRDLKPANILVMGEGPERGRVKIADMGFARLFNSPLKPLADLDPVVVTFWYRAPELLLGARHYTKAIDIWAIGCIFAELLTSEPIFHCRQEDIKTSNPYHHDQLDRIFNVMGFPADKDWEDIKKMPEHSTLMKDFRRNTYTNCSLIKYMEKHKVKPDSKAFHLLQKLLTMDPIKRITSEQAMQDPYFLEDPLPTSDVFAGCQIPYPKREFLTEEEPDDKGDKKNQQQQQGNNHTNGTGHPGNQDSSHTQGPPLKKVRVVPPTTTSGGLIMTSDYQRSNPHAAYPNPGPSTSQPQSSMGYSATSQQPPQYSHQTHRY
T1 sequence (Q06187 whole entry): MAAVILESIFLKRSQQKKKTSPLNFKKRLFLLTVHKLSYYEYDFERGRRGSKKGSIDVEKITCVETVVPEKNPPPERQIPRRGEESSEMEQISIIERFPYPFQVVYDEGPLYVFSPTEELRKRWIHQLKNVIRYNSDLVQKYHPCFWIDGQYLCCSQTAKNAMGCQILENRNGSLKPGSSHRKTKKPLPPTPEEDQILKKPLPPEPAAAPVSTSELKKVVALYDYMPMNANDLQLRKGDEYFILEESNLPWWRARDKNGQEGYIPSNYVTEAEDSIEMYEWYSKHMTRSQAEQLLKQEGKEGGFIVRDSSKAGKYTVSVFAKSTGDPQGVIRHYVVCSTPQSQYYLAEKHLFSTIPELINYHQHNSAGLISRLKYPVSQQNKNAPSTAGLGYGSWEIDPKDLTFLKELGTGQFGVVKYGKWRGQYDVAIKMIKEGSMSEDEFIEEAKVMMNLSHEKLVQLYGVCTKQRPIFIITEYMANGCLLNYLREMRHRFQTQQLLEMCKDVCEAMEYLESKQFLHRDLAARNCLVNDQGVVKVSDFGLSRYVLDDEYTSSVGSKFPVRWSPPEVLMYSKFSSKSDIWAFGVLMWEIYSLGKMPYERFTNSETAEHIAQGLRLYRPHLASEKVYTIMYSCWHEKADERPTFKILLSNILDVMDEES
T3 sequence (O75716 whole entry): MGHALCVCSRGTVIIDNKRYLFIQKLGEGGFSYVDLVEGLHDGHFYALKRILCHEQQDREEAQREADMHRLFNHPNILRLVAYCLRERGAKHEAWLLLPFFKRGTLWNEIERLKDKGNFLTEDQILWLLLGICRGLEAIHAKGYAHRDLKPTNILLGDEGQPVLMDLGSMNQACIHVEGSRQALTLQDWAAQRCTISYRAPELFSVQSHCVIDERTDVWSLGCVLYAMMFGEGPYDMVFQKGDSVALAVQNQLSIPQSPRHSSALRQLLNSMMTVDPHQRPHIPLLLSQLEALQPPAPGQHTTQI

| Structure (SMILES) | POC ligand binding, BTK [1] [POC] | POC ligand binding, FLT3 (D835Y) [2] [POC] | POC ligand binding, STK16 [3] [POC] | POC ligand binding, HIPK2 [4] [POC] | inhibition of CDK8 [5] [%] | Kd [5] [nM] | POC ligand binding, MAP4K2 [6] [POC] | POC ligand binding, SLK [7] [POC] | POC ligand binding, FLT3 (D835Y) ([2]; 10 µM) [POC] | POC ligand binding, STK16 ([3]; 10 µM) [POC] | POC ligand binding, HIPK2 ([4]; 10 µM) [POC] | POC ligand binding, CDK8 ([5]; 10 µM) [POC] | POC ligand binding, MAP4K2 ([6]; 10 µM) [POC] | POC ligand binding, SLK ([7]; 10 µM) [POC] | POC ligand binding, CDK8 [5] [POC] |
| --- | --- | --- | --- | --- | --- | --- | --- | --- | --- | --- | --- | --- | --- | --- | --- |
| N#Cc1ccc2ncnc(NCCc3ccccc3)c2c1 [compound 1] | 15 | 19 | 4.2 | 18 | > 99 | 830 | 12 | 11 |  |  |  |  |  |  |  |
| N#Cc1ccc2ncnc(NCc3ccc4ccccc4c3)c2c1 [compound 14] | 100 |  |  |  |  | 2500 |  |  | 32 | 2.4 | 34 | 0.4 | 16 | 90 |  |
| N#Cc1ccc2ncnc(NCc3ccc(Cl)cc3)c2c1 [compound 20] | 100 | 69 | 25 | 28 |  | 240 | 21 | 61 |  |  |  |  |  |  | 0.15 |
| N#Cc1ccc2ncnc(NCCc3ccc4ccccc4c3)c2c1 [compound 26] | 100 | 55 | 16 | 73 | ~100 | 570 | 28 | 73 |  |  |  |  |  |  | 0 |
| N#Cc1ccc2ncnc(NCc3ccc4ccccc4c3)c2c1 [compound 43] | 100 |  |  |  |  | 240 |  |  | 76 | 30 | 30 | 1.6 | 28 | 92 |  |
| COc1ccc2ncnc(NCCc3ccccc3)c2c1 [compound 44] | 100 | 55 | 70 | 62 |  |  | 35 | 43 |  |  |  |  |  |  | 24 |
| CC(C)CNc1ncnc2ccc(C(F)(F)F)cc12 [compound 45] | 100 | 4.7 | 17 | 20 |  |  | 12 | 59 |  |  |  |  |  |  | 37 |
| CCCNc1ncnc2ccc(N3CCOCC3)cc12 [compound 46] | 81 | 19 | 80 | 30 |  |  | 82 | 88 |  |  |  |  |  |  | 100 |
